# PubChem BioAssay (NCI)
#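 96-well plates; 48 h exposure; 5 concentrations. Endpoints by linear interpolation between flanking doses. Not reached: highest tested concentration assigned. At the TGI there is no net growth.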
# Legend:
# Test in all cases: NCI tumour cell line growth inhibition, 48 h
# [1] = tested on: 786-0 renal
# [2] = tested on: A498 renal
# [3] = tested on: A549 NSCLC
# [4] = tested on: ACHN renal
# [5] = tested on: BT-549 breast
# [6] = tested on: CAKI-1 renal
# [7] = tested on: CCRF-CEM leukemia
# [8] = tested on: COLO 205 colon
# [9] = tested on: DU-145 prostate
# [10] = tested on: HCC-2998 colon
# [11] = tested on: HCT-116 colon
# [12] = tested on: HCT-15 colon
# [13] = tested on: HL-60(TB) leukemia
# [14] = tested on: HOP-92 NSCLC
# [15] = tested on: K-562 leukemia
# [16] = tested on: LOX IMVI melanoma
# [17] = tested on: MDA-MB-231 breast
# [18] = tested on: MDA-MB-435
# [19] = tested on: MDA-N
# [20] = tested on: NCI-H23 lung
# [21] = tested on: NCI-H460 lung
# [22] = tested on: OVCAR-4 ovarian
# [23] = tested on: RPMI-8226 leukemia
# [24] = tested on: RXF 393 renal
# [25] = tested on: SF-295 CNS
# [26] = tested on: SK-MEL-28 melanoma
# [27] = tested on: SK-MEL-5 melanoma
# [28] = tested on: SK-OV-3 ovarian
# [29] = tested on: SN12C renal
# [30] = tested on: SNB-19 CNS
# [31] = tested on: SR leukemia
# [32] = tested on: SW-620 colon
# [33] = tested on: T-47D breast
# [34] = tested on: TK-10 renal
# [35] = tested on: U251 CNS
# [36] = tested on: UACC-257 melanoma
# [37] = tested on: UACC-62 melanoma
# [38] = tested on: UO-31 renal
# [39] = tested on: EKVX NSCLC
# [40] = tested on: HOP-62 NSCLC
# [41] = tested on: HS 578T breast
# [42] = tested on: HT29 colon
# [43] = tested on: IGROV1 ovarian
# [44] = tested on: KM12 colon
# [45] = tested on: M14 melanoma
# [46] = tested on: MALME-3M melanoma
# [47] = tested on: MCF7 breast
# [48] = tested on: MOLT-4 leukemia
# [49] = tested on: NCI-H226 lung
# [50] = tested on: NCI-H522 lung
# [51] = tested on: NCI/ADR-RES ovarian
# [52] = tested on: OVCAR-3 ovarian
# [53] = tested on: OVCAR-5 ovarian
# [54] = tested on: OVCAR-8 ovarian
# [55] = tested on: PC-3 prostate
# [56] = tested on: SF-268 CNS
# [57] = tested on: SF-539 CNS
# [58] = tested on: SK-MEL-2 melanoma
# [59] = tested on: SNB-75 CNS
smiles,measurement,setting,value
Nc1nc2c(c(=O)[nH]1)C(c1ccc(Cl)cc1)C=C(c1ccccc1)N2 (stereo not given),TGI,[1],74.5 µM
same,TGI,[2],> 100 µM
same,TGI,[3],> 100 µM
same,TGI,[4],> 100 µM
same,TGI,[5],> 100 µM
same,TGI,[6],> 100 µM
same,TGI,[7],93.4 µM
same,TGI,[8],45.6 µM
same,TGI,[9],> 100 µM
same,TGI,[10],34.2 µM
same,TGI,[11],41.8 µM
same,TGI,[12],> 100 µM
same,TGI,[13],> 100 µM
same,TGI,[14],54.7 µM
same,TGI,[15],60 µM
same,TGI,[16],> 100 µM
same,TGI,[17],43.6 µM
same,TGI,[18],41.8 µM
same,TGI,[19],47.7 µM
same,TGI,[20],59.1 µM
same,TGI,[21],71.7 µM
same,TGI,[22],> 100 µM
same,TGI,[23],39.3 µM
same,TGI,[24],> 100 µM
same,TGI,[25],> 100 µM
same,TGI,[26],60.6 µM
same,TGI,[27],55.8 µM
same,TGI,[28],54.9 µM
same,TGI,[29],46.6 µM
same,TGI,[30],> 100 µM
same,TGI,[31],51.8 µM
same,TGI,[32],61.9 µM
same,TGI,[33],72.7 µM
same,TGI,[34],> 100 µM
same,TGI,[35],39.4 µM
same,TGI,[36],> 100 µM
same,TGI,[37],78.3 µM
same,TGI,[38],> 100 µM
CC1(CCC(=O)OC2CCCCC2)OCCO1,TGI,[1],> 100 µM
same,TGI,[2],> 100 µM
same,TGI,[3],> 100 µM
same,TGI,[4],> 100 µM
same,TGI,[6],> 100 µM
same,TGI,[7],> 100 µM
same,TGI,[8],> 100 µM
same,TGI,[9],> 100 µM
same,TGI,[39],> 100 µM
same,TGI,[11],> 100 µM
same,TGI,[12],> 100 µM
same,TGI,[13],> 100 µM
same,TGI,[40],> 100 µM
same,TGI,[14],> 100 µM
same,TGI,[41],> 100 µM
same,TGI,[42],> 100 µM
same,TGI,[43],> 100 µM
same,TGI,[15],> 100 µM
same,TGI,[44],> 100 µM
same,TGI,[16],> 100 µM
same,TGI,[45],> 100 µM
same,TGI,[46],> 100 µM
same,TGI,[47],> 100 µM
same,TGI,[17],> 100 µM
same,TGI,[18],> 100 µM
same,TGI,[19],> 100 µM
same,TGI,[48],> 100 µM
same,TGI,[49],> 100 µM
same,TGI,[20],> 100 µM
same,TGI,[21],> 100 µM
same,TGI,[50],> 100 µM
same,TGI,[51],> 100 µM
same,TGI,[52],> 100 µM
same,TGI,[22],> 100 µM
same,TGI,[53],> 100 µM
same,TGI,[54],> 100 µM
same,TGI,[55],> 100 µM
same,TGI,[23],> 100 µM
same,TGI,[24],> 100 µM
same,TGI,[56],> 100 µM
same,TGI,[25],> 100 µM
same,TGI,[57],> 100 µM
same,TGI,[58],> 100 µM
same,TGI,[26],> 100 µM
same,TGI,[27],> 100 µM
same,TGI,[28],> 100 µM
same,TGI,[29],> 100 µM
same,TGI,[30],> 100 µM
same,TGI,[59],> 100 µM
same,TGI,[31],> 100 µM
same,TGI,[32],> 100 µM
same,TGI,[33],> 100 µM
same,TGI,[34],> 100 µM
same,TGI,[35],> 100 µM
same,TGI,[36],> 100 µM
same,TGI,[37],> 100 µM
same,TGI,[38],> 100 µM
